Columns and labels:
[1] = test system: Chromobacterium violaceum CV026; assay: Violacein inhibition assay (quantitative), tube assay; assay type: cell-based
Method: This assay is based on a similar principle to the one described above, that is the presence of any quorum sensing inhibitor will quantitatively decrease the production of the purple pigment violacein which can then be estimated colorimetrically. This is a tube assay in which 100 μl of overnight culture of CV026 was inoculated in 10 ml LB broth containing the QS signal molecule (namely C6-HSL, C8-HSL or 3-oxo-C6-HSL) at appropriate concentrations. The test compound, Pichia sp. synthesized xylitol in the present invention, was then added at increasing concentrations in a series of test tubes. The violacein produced was extracted from the culture broth by dissolution of the pigment in DMSO and separating it from the cell mass by centrifugation. The amount of xylitol required to inhibit or substantially decrease the purple pigment production could be quantitatively estimated by measuring the optical density at 570 nm. Appropriate positive and negative controls were used. All experiments were done in triplicates for checking reproducibility.

[2] = test system: Chromobacterium violaceum mutant CV026; assay: Violacein inhibition assay (qualitative), agar well; assay type: cell-based; details: QS signal molecule 12.5 μM, 30° C., 24 hours, FIG. 5
Method: This assay has been designed in such a way that a zone inhibition of Violacein synthesis can be seen around the agar well containing the probable QS Inhibitor. Chromobacterium violaceum mutant CV026 is used as the test organism which has the ability to respond to a variety of signal molecules. The QS signal molecule (12.5 μM) is added to 10 ml of Luria bertani soft agar containing 100 μl of overnight culture of CV026. The soft agar is then overlayed onto basal LA plate, and a 4 mm diameter well is dug in the centre of the plate using a sterile cork borer after the overlay is set. To the agar well 75 μl of appropriate concentration of the compound under investigation was added, and the plates were incubated at 30° C. for 24 hours. The diameter of zone of Violacein inhibition was then measured. Pure xylitol from sigma was used for comparative analysis.

[3] = increasing concentration of xylitol, CV026

OC[C@@H](O)[C@H](O)[C@@H](O)CO [Pichia xylitol, xylitol]
antagonism of AHL signal and receptor interaction ([1]; CV026 based AHL antagonism assay, C6-HSL, C8-HSL and 3-oxo-C6-HSL): able to antagonize not one but three different AHL signal and receptor interaction
inhibitory effect on the organism [1, 3]: not inhibitory to the organism
quorum sensing signal reception [1, 3]: severely impaired quorum sensing signal reception
inhibition of Violacein production ([1]; increasing concentrations of xylitol, optical density at 570 nm, FIG. 6): could quantitatively inhibit Violacein production
zone of inhibition of Violacein synthesis [2]: zone of inhibition of Violacein synthesis around the agar well

From patent US20150159180A1, “PROCESS FOR PRODUCTION OF C[…] USING PICHIA CARIBBICA AND ITS APPLICATION FOR QUORUM SENSING INHIBITION” (COUNCIL OF SCIENTIFIC & INDUSTRIAL RESEARCH, priority 2012, published 2015)
